Experiments:
Assay type in all cases: in vivo
[1] = test system: Abutilon theophrasti (ABUTH); assay: Glasshouse adjuvant test with fomesafen (Example 5); conditions: fomesafen 60 or 120 g/ha, adjuvant 0.2% v/v or none, 200 l/ha; growth stage 12; mean over two rates, three replicates, 7, 14 and 21 days
Procedure: (§1) Compound 1 (N, N-diethyl-3-methylbenzamide) was tested in a glasshouse against four weed species using the herbicide fomesafen. An agrochemical composition was prepared containing 0.2% v/v of the adjuvant in a track sprayer and was applied at a volume of 200 liters per hectare. Fomesafen was applied at either 60 or 120 grams of pesticide per hectare on each of the weed species. The weed species and their growth stage at spraying were Chenopodium album (CHEAL; growth stage 13/14), Abutilon theophrasti (ABUTH; growth stage 12), Setaria viridis (SETVI; growth stage 13), and Xanthium strumarium (XANST; growth stage 12).
(§2) Each spray test was replicated three times. The efficacy of the herbicide was assessed visually and expressed as a percentage of the leaf area killed. Samples were assessed at time periods of 7, 14 and 21 days following application. The results shown in Table 5 below are mean averages over the two rates of fomesafen, three replicates and the three assessment timings, and are compared to the efficacy of fomesafen in the absence of adjuvant.

[2] = test system: Chenopodium album (CHEAL); assay: as above; conditions: fomesafen 60 or 120 g/ha, adjuvant 0.2% v/v or none, 200 l/ha; growth stage 13/14; mean over two rates, three replicates, 7, 14 and 21 days
Procedure: as §1, §2

Setaria viridis (SETVI) [3] = assay: as above; conditions: fomesafen 60 or 120 g/ha, adjuvant 0.2% v/v or none, 200 l/ha; growth stage 13; mean over two rates, three replicates, 7, 14 and 21 days
Procedure: as §1, §2

[4] = test system: Xanthium strumarium (XANST); assay: as above; conditions: fomesafen 60 or 120 g/ha, adjuvant 0.2% v/v or none, 200 l/ha; growth stage 12; mean over two rates, three replicates, 7, 14 and 21 days
Procedure: as §1, §2

[5] = test system: Amaranthus tuberculatus (AMATE); assay: Glasshouse adjuvant test with mesotrione (Example 6); conditions: mesotrione 45 or 90 g/ha, adjuvant 0.2% v/v or none, 200 l/ha; growth stage 13/14; mean over two rates, three replicates, 7, 14 and 21 days
Procedure: (§3) Compound 1 was tested in a glasshouse against four weed species using the herbicide mesotrione. A 20% w/w stock emulsion of compound 1 was prepared additionally containing 2% w/w Gohsenol® GL03 and 2% w/w Pluronic® PE10500 as surfactants. Using this, an agrochemical composition was prepared containing 0.2% v/v of the adjuvant in a track sprayer and was applied at a volume of 200 liters per hectare. Mesotrione was applied at either 45 or 90 grams of pesticide per hectare on each of the weed species. The weed species and their growth stage at spraying were Amaranthus tuberculatus (AMATE; growth stage 13/14), Brachiaria decumbens (BRADE; growth stage 13/14), Digitaria sanguinalis (DIGSA; growth stage 14), and Polygonum convolvulus (POLCO; growth stage 11/11.5).
(§4) Each test was replicated three times. The efficacy of the herbicide was assessed visually and expressed as a percentage of the leaf area killed. Samples were assessed at time periods of 7, 14 and 21 days following application. The results shown in Table 6 below are mean averages over the two rates of mesotrione, three replicates and the three assessment timings, and are compared to the efficacy of mesotrione in absence of adjuvant.

[6] = test system: Brachiaria decumbens (BRADE); assay: as above; conditions: mesotrione 45 or 90 g/ha, adjuvant 0.2% v/v or none, 200 l/ha; growth stage 13/14; mean over two rates, three replicates, 7, 14 and 21 days
Procedure: as §3, §4

[7] = test system: Digitaria sanguinalis (DIGSA); assay: as above; conditions: mesotrione 45 or 90 g/ha, adjuvant 0.2% v/v or none, 200 l/ha; growth stage 14; mean over two rates, three replicates, 7, 14 and 21 days
Procedure: as §3, §4

[8] = test system: Polygonum convolvulus (POLCO); assay: as above; conditions: mesotrione 45 or 90 g/ha, adjuvant 0.2% v/v or none, 200 l/ha; growth stage 11/11.5; mean over two rates, three replicates, 7, 14 and 21 days
Procedure: as §3, §4

[9] = test system: Alopecurus myosuroides (ALOMY); assay: Glasshouse adjuvant test with pinoxaden (Example 8); conditions: pinoxaden 7.5 or 15 g/ha, adjuvant 0.2% v/v or none, 200 l/ha; growth stage 13; mean over two rates, three replicates, 14 and 21 days
Procedure: (§5) The adjuvant shown in example 1 was tested in a glasshouse against four weed species in combination with the herbicide pinoxaden. A 20% w/w stock emulsion of compound 1 was prepared additionally containing 2% w/w Gohsenol® GL03 and 2% w/w Pluronic® PE10500 as surfactants. Using this, an agrochemical composition was prepared containing 0.2% v/v of the adjuvant in a track sprayer and was applied at a volume of 200 liters per hectare. Pinoxaden was applied at either 7.5 or 15 grams of pesticide per hectare on each of the weed species. The weed species and their growth stage at spraying were Alopecurus myosuroides (ALOMY; growth stage 13), Avena fatua (AVEFA; growth stage 12); Lolium perenne (LOLPE; growth stage 13), Setaria viridis (SETVI; growth stage 14).
(§6) Each spray test was replicated three times. The efficacy of the herbicide was assessed visually and expressed as a percentage of the leaf area killed. Samples were assessed at time periods of 14 and 21 days following application. The results shown in Table 8 are mean averages over the two rates of pinoxaden, three replicates and the two assessment timings, and are compared to the efficacy of pinoxaden in the absence of adjuvant.

Avena fatua (AVEFA) = assay: as above; conditions: pinoxaden 7.5 or 15 g/ha, adjuvant 0.2% v/v or none, 200 l/ha; growth stage 12; mean over two rates, three replicates, 14 and 21 days
Procedure: as §5, §6

Lolium perenne (LOLPE) = assay: as above; conditions: pinoxaden 7.5 or 15 g/ha, adjuvant 0.2% v/v or none, 200 l/ha; growth stage 13; mean over two rates, three replicates, 14 and 21 days
Procedure: as §5, §6

Setaria viridis (SETVI) [10] = assay: as above; conditions: pinoxaden 7.5 or 15 g/ha, adjuvant 0.2% v/v or none, 200 l/ha; growth stage 14; mean over two rates, three replicates, 14 and 21 days
Procedure: as §5, §6

SMILES: CCN(CC)C(=O)c1cccc(C)c1 [Compound 1, N, N-diethyl-3-methylbenzamide]
- Mean percentage kill ABUTH [1]: 38.9%
- Mean percentage kill CHEAL [2]: 80.3%
- Mean percentage kill SETVI (Setaria viridis (SETVI) [3]): 15.8%
- Mean percentage kill XANST [4]: 35.6%
- Mean percentage kill AMATE [5]: 71.7%
- Mean percentage kill BRADE [6]: 28.9%
- Mean percentage kill DIGSA [7]: 28.6%
- Mean percentage kill POLCO [8]: 87.2%
- Mean percentage kill ALOMY [9]: 22.5%
- Mean percentage kill AVEFA (Avena fatua (AVEFA)): 29.2%
- Mean percentage kill LOLPE (Lolium perenne (LOLPE)): 20.8%
- Mean percentage kill SETVI (Setaria viridis (SETVI) [10]): 15.8%

— US10051857B2, “Formulation component” (SYNGENTA LIMITED, priority 2011, dated 2018)
